Values after ≈ are worked out from the molar mass of the structure shown.
Key:
[1] = Apparent permeability from basolateral to apical side in human Caco-2 cells by LC-MS/MS analysis; format: ADME, cell-based
Apelin receptor [2] = target: T1, Apelin receptor (Homo sapiens, UniProt P35414); assay: Agonist activity at human APJ receptor expressed in CHO cells assessed as inhibition of forskolin-induced cAMP accumulation measured after 30 mins by TR-FRET based LANCE cAMP assay; format: functional, cell-based
T1 sequence (P35414 whole entry): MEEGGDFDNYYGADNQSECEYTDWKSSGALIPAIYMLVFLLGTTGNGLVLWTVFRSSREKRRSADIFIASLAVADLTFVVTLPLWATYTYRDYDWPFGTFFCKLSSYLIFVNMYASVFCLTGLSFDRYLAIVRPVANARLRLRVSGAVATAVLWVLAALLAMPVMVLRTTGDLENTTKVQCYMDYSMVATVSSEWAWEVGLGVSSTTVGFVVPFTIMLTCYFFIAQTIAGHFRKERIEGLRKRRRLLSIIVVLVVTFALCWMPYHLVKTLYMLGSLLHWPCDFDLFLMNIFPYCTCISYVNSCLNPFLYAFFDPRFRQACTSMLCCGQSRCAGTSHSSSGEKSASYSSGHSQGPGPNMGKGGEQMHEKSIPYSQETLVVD

Apelin receptor [3] = target: T1, Apelin receptor; assay: Agonist activity at human APJ receptor expressed in CHO cells co-expressing Galphaq16 assessed as stimulation of Ca2+ mobilization measured at 1 sec interval for 90 sec by fluorescent Calcium 5-dye based FLIPR-calcium mobilization assay; format: functional, cell-based
[4] = Metabolic stability in Sprague-Dawley rat liver microsomes assessed as parent compound remaining at 1 uM measured after 30 mins in the presence of NADPH by LC-MS analysis
[5] = Efflux ratio of apparent permeability from basolateral to apical side over apical to basolateral side in human Caco-2 cells by LC-MS/MS analysis; format: ADME, cell-based
[6] = Apparent permeability from apical to basolateral side in human Caco-2 cells by LC-MS/MS analysis; format: ADME, cell-based
[7] = target: T2, Apelin receptor (Homo sapiens) (UniProt P35414); assay: Agonist activity at human AGTRL1 expressed in CHO-K1 cells assessed as induction of beta-arrestin 2 recruitment by measuring maximal efficacy incubated for 90 mins by PathHunter assay relative to control; format: functional, cell-based; details: filed as agonist
T2 sequence (whole entry): T1 sequence (P35414 whole entry)

[8] = Solubility of the compound at pH 7.4; format: physicochemical; details: buffer
[9] = Plasma protein binding in rat by LC-MS/MS analysis; format: ADME, cell-free; details: read-out: PPB (converted)
Apelin receptor [10] = target: T1, Apelin receptor; assay: Agonist activity at human AGTRL1 expressed in CHO-K1 cells assessed as induction of beta-arrestin 2 recruitment incubated for 90 mins by PathHunter assay; format: functional, cell-based
[11] = Tmax in Sprague-Dawley rat at 10 mg/kg, po measured upto 24 hrs by LC-MS/MS analysis; format: ADME, organism-based; details: in vivo
[12] = AUC in Sprague-Dawley rat at 10 mg/kg, po measured upto 24 hrs by LC-MS/MS analysis; format: ADME, organism-based; set-up: time < 24 hrs, dose 10 mg/kg, route po; details: in vivo
[13] = Clearance in Sprague-Dawley rat at 10 mg/kg, po measured upto 24 hrs by LC-MS/MS analysis; format: ADME, organism-based; details: in vivo
[14] = Cmax in Sprague-Dawley rat at 10 mg/kg, po measured upto 24 hrs by LC-MS/MS analysis; format: ADME, organism-based; set-up: dose 10 mg/kg, time < 24 hrs, route po; details: in vivo
[15] = Half-life in Sprague-Dawley rat at 10 mg/kg, po measured upto 24 hrs by LC-MS/MS analysis; format: ADME, organism-based; details: in vivo
[16] = Oral bioavailability in Sprague-Dawley rat at 10 mg/kg measured upto 24 hrs by LC-MS/MS analysis; format: ADME, organism-based; details: in vivo
[17] = MRT in Sprague-Dawley rat at 10 mg/kg, po measured upto 24 hrs by LC-MS/MS analysis; format: ADME, organism-based; details: in vivo

Row | SMILES | EC50 (Apelin receptor [2]) [nM] | EC50 (Apelin receptor [3]) [nM] | remaining at 0.5 h, 1 µM [4] [%] | other results
1 | CN(CC[C@@H](CC(=O)NC1CCC1)NC(=O)c1cc(-c2ccccc2C(F)(F)F)n(C2CCCC2)n1)C1CCCCC1 | 2 | 14 | 65.2 | Papp B→A [1]: 68 ×10⁻⁶ cm/s
2 | Cc1cnn(CC[C@@H](CC(=O)NC2CCC2)NC(=O)c2cc(-c3ccccc3C(F)(F)F)n(C3CCCC3)n2)c1 | 54 | – | – | efflux ratio [5]: 3; Papp B→A [1]: 24 ×10⁻⁶ cm/s; Papp A→B [6]: 8 ×10⁻⁶ cm/s
3 | O=C(C[C@H](CCN1CCCCC1)NC(=O)c1cc(-c2ccsc2C(F)(F)F)n(C2CCCC2)n1)NC1CCC1 | – | 538 | – | –
4 | O=C(C[C@H](CCc1ccc(F)cc1)NC(=O)c1cc(-c2ccccc2C(F)(F)F)n(C2CCCC2)n1)NC1CCC1 | 15 | 103 | – | –
5 | CN(C(=O)[C@H](CC(=O)NC1CCC1)NC(=O)c1cc(-c2ccccc2C(F)(F)F)n(C2CCCC2)n1)C1CCCCC1 | – | 879 | – | –
6 | O=C(C[C@H](CCN1CCCCC1)NC(=O)c1cc(-c2cccc[n+]2[O-])n(C2CCCC2)n1)NC1CCC1 | – | > 10000 | – | –
7 | CCc1ccccc1-c1cc(C(=O)N[C@@H](CCN2CCCCC2)CC(=O)NC2CCC2)nn1C1CCCC1 | 7 | – | 76.5 | –
8 | O=C(C[C@H](CCN1CCCCC1)NC(=O)c1cc(-c2ccccc2C2CC2)n(C2CCCC2)n1)NC1CCC1 | 6.4 | – | 70.1 | –
9 | C#Cc1ccccc1-c1cc(C(=O)N[C@@H](CCN2CCCCC2)CC(=O)NC2CCC2)nn1C1CCCC1 | – | 267 | – | –
10 | O=C(C[C@H](CCN1CCCCC1)NC(=O)c1cc(-c2cscn2)n(C2CCCC2)n1)NC1CCC1 | – | > 10000 | – | –
11 | CC(C)CN(C)CC[C@@H](CC(=O)NC1CCC1)NC(=O)c1cc(-c2ccccc2C(F)(F)F)n(C2CCCC2)n1 | 0.35 | – | 63.6 | –
12 | COc1cccc(F)c1-c1cc(C(=O)N[C@@H](CCN2CCCCC2)CC(=O)NC2CCC2)nn1C1CCCC1 | 5.6 | – | 74.3 | –
13 | CN(C[C@H](CC(=O)NC1CCC1)NC(=O)c1cc(-c2ccccc2C(F)(F)F)n(C2CCCC2)n1)C1CCCCC1 | – | 5120 | – | –

The next lines start with results.

Row | EC50 (Apelin receptor [2]) [nM] | EC50 (Apelin receptor [3]) [nM] | remaining at 0.5 h, 1 µM [4] [%] | SMILES | other results
14 | 28 | 69 | – | O=C(C[C@H](CCN1CCOCC1)NC(=O)c1cc(-c2ccccc2C(F)(F)F)n(C2CCCC2)n1)NC1CCC1 | –
15 | – | 1210 | – | O=C(C[C@@H](CN1CCC(F)(F)C1)NC(=O)c1cc(-c2ccccc2C(F)(F)F)n(C2CCCC2)n1)NC1CCC1 | –
16 | 4.3 | – | 77.1 | CC(F)(F)c1ccccc1-c1cc(C(=O)N[C@@H](CCN2CCCCC2)CC(=O)NC2CCC2)nn1C1CCCC1 | –
17 | 2.4 | – | 74.6 | O=C(C[C@H](CCN1CCCCC1)NC(=O)c1cc(-c2ccccc2C(F)(F)F)n(C2CCCC2)n1)NC1CCC1 | efflux ratio [5]: 304; Papp B→A [1]: 52 ×10⁻⁶ cm/s
18 | 6 | 31 | 6.04 | O=C(C[C@H](CCN1CCCC[C@H]1C(F)(F)F)NC(=O)c1cc(-c2ccccc2C(F)(F)F)n(C2CCCC2)n1)NC1CCC1 | –
19 | – | 162 | – | O=C(C[C@H](CCN1CC2(COC2)C1)NC(=O)c1cc(-c2ccccc2C(F)(F)F)n(C2CCCC2)n1)NC1CCC1 | –
20 | – | 910 | – | O=C(C[C@@H](CN1CCCC(F)(F)C1)NC(=O)c1cc(-c2ccccc2C(F)(F)F)n(C2CCCC2)n1)NC1CCC1 | –
21 | 3.4 | – | 38.7 | O=C(C[C@H](CCN1CCCC(F)(F)C1)NC(=O)c1cc(-c2ccccc2C(F)(F)F)n(C2CCCC2)n1)NC1CCC1 | efflux ratio [5]: 1; Emax [7]: 107%; solubility [8]: 4 µM (≈ 2.38 µg/mL); Papp B→A [1]: 36 ×10⁻⁶ cm/s; Papp A→B [6]: 33 ×10⁻⁶ cm/s; fraction unbound [9]: 0.005; EC50 (Apelin receptor [10]): 5.4 nM
22 | – | 834 | – | CN(C)CC[C@@H](CC(=O)NC1CCC1)NC(=O)c1cc(-c2ccccc2C(F)(F)F)n(C2CCCC2)n1 | –
23 | 6.5 | 24 | – | O=C(C[C@H](CCN1CCCC(F)(F)C1)NC(=O)c1cc(-c2ccccc2C(F)(F)F)n(C2CCCC2)n1)Nc1nnn[nH]1 | efflux ratio [5]: 1; Tmax [11]: 0.4 h; Emax [7]: 80%; solubility [8]: > 1000 µM; Papp B→A [1]: 8 ×10⁻⁶ cm/s; AUC at 24 h [12]: 5850 ng·h/mL; Papp A→B [6]: 8 ×10⁻⁶ cm/s; fraction unbound [9]: < 0.006; CL/F [13]: 28 mL/min/kg; Cmax [14]: 1580 ng/mL; half-life [15]: 4.1 h; bioavailability [16]: > 95%; EC50 (Apelin receptor [10]): 463 nM; MRT [17]: 5.1 h
